Laboratory results reported in ChEMBL document CHEMBL5518186, “Discovery of the cereblon-recruiting tubulin PROTACs effective in overcoming Taxol resistance in vitro and in vivo” (Eur J Med Chem, 2024).
Activity calls are given as the source filed them. No cut-off for these calls is given here.

Legend:
[1] = biological target: T1, Estrogen receptor (Homo sapiens) (UniProt P03372); test: Induction of ER degradation (unknown origin)
T1 sequence (whole entry): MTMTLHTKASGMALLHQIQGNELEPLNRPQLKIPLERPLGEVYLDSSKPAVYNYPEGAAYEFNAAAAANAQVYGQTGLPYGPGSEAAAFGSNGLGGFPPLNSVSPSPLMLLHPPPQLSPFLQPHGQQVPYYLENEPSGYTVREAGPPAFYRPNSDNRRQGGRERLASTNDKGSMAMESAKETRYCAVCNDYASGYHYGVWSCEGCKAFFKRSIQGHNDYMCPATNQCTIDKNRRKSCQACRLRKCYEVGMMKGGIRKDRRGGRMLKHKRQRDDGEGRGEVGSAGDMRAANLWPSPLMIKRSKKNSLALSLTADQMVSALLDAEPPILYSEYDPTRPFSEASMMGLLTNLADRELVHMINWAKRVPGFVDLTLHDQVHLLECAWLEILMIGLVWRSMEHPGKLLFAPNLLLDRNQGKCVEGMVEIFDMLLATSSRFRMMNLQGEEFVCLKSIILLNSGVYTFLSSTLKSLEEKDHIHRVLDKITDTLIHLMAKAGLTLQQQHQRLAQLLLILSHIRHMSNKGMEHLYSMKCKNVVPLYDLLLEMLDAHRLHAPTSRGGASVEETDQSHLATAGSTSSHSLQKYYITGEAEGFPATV

[2] = biological target: T2, Protein cereblon/Tubulin beta-3 chain (Homo sapiens, UniProt Q13509+Q96SW2); test: Protac activity at CRBN/beta3-tubulin in human A549 cells assessed as reduction in beta3-tubulin level at 0.01 to 1 uM incubated for 48 hrs by immunoblotting analysis; format: cell-based; details: dose 0.01-1 µM
Target sequence in this assay (Q13509 whole entry, looked up): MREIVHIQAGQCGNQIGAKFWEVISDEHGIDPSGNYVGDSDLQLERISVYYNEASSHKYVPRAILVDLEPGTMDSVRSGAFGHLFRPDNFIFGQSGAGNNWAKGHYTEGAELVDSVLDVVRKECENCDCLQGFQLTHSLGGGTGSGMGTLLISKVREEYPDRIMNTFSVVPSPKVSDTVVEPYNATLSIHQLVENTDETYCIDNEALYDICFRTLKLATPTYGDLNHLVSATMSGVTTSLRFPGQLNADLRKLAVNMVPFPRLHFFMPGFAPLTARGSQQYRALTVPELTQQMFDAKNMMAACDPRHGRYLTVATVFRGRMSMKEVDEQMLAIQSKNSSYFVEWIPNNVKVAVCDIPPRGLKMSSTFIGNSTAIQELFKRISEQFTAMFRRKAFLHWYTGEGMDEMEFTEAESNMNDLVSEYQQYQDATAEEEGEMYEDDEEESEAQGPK
Target sequence in this assay (Q96SW2 whole entry, looked up): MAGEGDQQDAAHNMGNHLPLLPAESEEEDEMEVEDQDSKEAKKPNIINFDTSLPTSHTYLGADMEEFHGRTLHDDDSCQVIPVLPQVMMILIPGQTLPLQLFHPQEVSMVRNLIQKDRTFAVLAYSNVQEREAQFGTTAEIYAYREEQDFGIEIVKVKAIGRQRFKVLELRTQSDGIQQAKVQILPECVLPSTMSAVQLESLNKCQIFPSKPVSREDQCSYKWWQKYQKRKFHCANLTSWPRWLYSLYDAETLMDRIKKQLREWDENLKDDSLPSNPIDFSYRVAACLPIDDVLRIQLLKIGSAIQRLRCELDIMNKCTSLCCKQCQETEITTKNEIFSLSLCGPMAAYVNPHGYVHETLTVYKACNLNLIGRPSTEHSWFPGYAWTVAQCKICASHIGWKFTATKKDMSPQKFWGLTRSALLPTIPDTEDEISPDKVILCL

[3] = biological target: T2, Protein cereblon/Tubulin beta-3 chain; test: Protac activity at CRBN/beta3-tubulin in human A549/Taxol cells assessed as reduction in beta3-tubulin level incubated for 48 hrs by immunoblotting analysis; format: cell-based
[4] = biological target: T3, Protein cereblon-alpha tubulin (Homo sapiens) (UniProt P0DPH7+P68366+Q71U36+P68363+Q9BQE3+Q6PEY2+A6NHL2+Q9NY65+Q96SW2); test: Protac activity at CRBN/alpha-tubulin in human A549 cells assessed as reduction in alpha-tubulin level at 0.01 to 1 uM incubated for 48 hrs by immunoblotting analysis; format: cell-based; details: dose 0.01-1 µM
A549 [5] = test: Antiproliferative activity against human A549 cells incubated for 72 hrs; format: functional, cell-based; details: A549, 72 h
HeLa = test: Antiproliferative activity against human HeLa cells incubated for 72 hrs; format: functional, cell-based
U-937 = test: Antiproliferative activity against human U-937 cells incubated for 72 hrs; format: functional, cell-based; details: U-937, 72 h
[6] = biological target: Protein cereblon-alpha tubulin; test: (§1) Protac activity at CRBN/alpha-tubulin in human A549/Taxol cells assessed as reduction in alpha-tubulin level incubated for 48 hrs by immunoblotting analysis; format: cell-based
[7] = biological target: T3, Protein cereblon-alpha tubulin (Homo sapiens); test: as §1; format: cell-based
[8] = biological target: T4, Protein cereblon/Tubulin beta (Homo sapiens) (UniProt P68371+Q9H4B7+Q13509+P04350+Q3ZCM7+P07437+Q13885+Q9BVA1+Q9BUF5+Q96SW2+A6NNZ2); test: (§2) Protac activity at CRBN/beta-tubulin in human A549/Taxol cells assessed as reduction in beta-tubulin level incubated for 48 hrs by immunoblotting analysis; format: cell-based
[9] = biological target: Protein cereblon/Tubulin beta; test: as §2; format: cell-based
MGC-803 = test: Antiproliferative activity against human MGC-803 cells incubated for 72 hrs; format: functional, cell-based; details: MGC-803, 72 h
HepG2 = test: Antiproliferative activity against human HepG2 cells incubated for 72 hrs; format: functional, cell-based; details: HepG2, 72 h
[10] = biological target: Protein cereblon-alpha tubulin; test: (§3) Protac activity at CRBN/alpha-tubulin in human A549 cells assessed as reduction in alpha-tubulin level incubated for 48 hrs by immunoblotting analysis; format: cell-based
[11] = biological target: T3, Protein cereblon-alpha tubulin (Homo sapiens); test: as §3; format: cell-based
MCF7 = test: Antiproliferative activity against human MCF7 cells incubated for 72 hrs; format: functional, cell-based; details: MCF7, 72 h
[12] = biological target: T4, Protein cereblon/Tubulin beta (Homo sapiens); test: Protac activity at CRBN/beta-tubulin in human A549 cells assessed as reduction in beta-tubulin level at 0.01 to 1 uM incubated for 48 hrs by immunoblotting analysis; format: cell-based; details: dose 0.01-1 µM
[13] = biological target: T4, Protein cereblon/Tubulin beta (Homo sapiens); test: (§4) Protac activity at CRBN/beta-tubulin in human A549 cells assessed as reduction in beta-tubulin level incubated for 48 hrs by immunoblotting analysis; format: cell-based
[14] = biological target: Protein cereblon/Tubulin beta; test: as §4; format: cell-based
[15] = biological target: T2, Protein cereblon/Tubulin beta-3 chain; test: Protac activity at CRBN/beta3-tubulin in human A549 cells assessed as reduction in beta3-tubulin level incubated for 48 hrs by immunoblotting analysis; format: cell-based
A549/TR [16] = test: Antitumor activity against human A549/Taxol cells xenografted in nude mouse assessed as tumor growth inhibition at 10 mg/kg, ip administered once every 2 days for 23 days by Vernier caliper method; format: functional; details: 552 h, time 23 day, read-out: TGI
A549 [17] = test: Induction of cell cycle arrest in human A549 cells assessed as accumulation of cells at S phase at 0.02 uM incubated for 24 hrs by PI staining based flow cytometry analysis (reference value: 2.85%); format: functional
A549/TR [18] = test: Induction of cell cycle arrest in human A549/Taxol cells assessed as accumulation of cells at G0/G1 phase at 1 uM incubated for 24 hrs by PI staining based flow cytometry analysis (reference value: 77.86%); format: functional
A549/TR [19] = test: Induction of cell cycle arrest in human A549/Taxol cells assessed as accumulation of cells at G2/M phase at 1 uM incubated for 24 hrs by PI staining based flow cytometry analysis (reference value: 17.02%); format: functional
A549 [20] = test: Induction of cell cycle arrest in human A549 cells assessed as accumulation of cells at G2/M phase at 0.02 uM incubated for 24 hrs by PI staining based flow cytometry analysis (reference value: 31.86%); format: functional
A549 [21] = test: Antitumor activity against human A549 cells xenografted in nude mouse assessed as decrease in tumor weight at 10 mg/kg, ip administered once every 2 days for 23 days by Vernier caliper method; format: functional, organism-based; details: time 23.0 day
A549/TR [22] = test: Inhibition of cell growth in human A549/Taxol cells incubated for 72 hrs by SRB method; format: functional, cell-based
A549 [23] = test: Induction of cell cycle arrest in human A549 cells assessed as accumulation of cells at G0/G1 phase at 0.02 uM incubated for 24 hrs by PI staining based flow cytometry analysis (reference value: 66.75%); format: functional
A549 [24] = test: Antitumor activity against human A549 cells xenografted in nude mouse assessed as decrease in tumor volume at 10 mg/kg, ip administered once every 2 days for 23 days by Vernier caliper method; format: functional, organism-based; details: time 23.0 day
A549 [25] = test: Antitumor activity against human A549 cells xenografted in nude mouse assessed as tumor growth inhibition at 10 mg/kg, ip administered once every 2 days for 23 days by Vernier caliper method; format: functional; details: A549, 552 h, time 23 day, read-out: TGI
[26] = Toxicity in nude mouse xenografted with human A549 cells assessed as body weight loss at 10 mg/kg, ip administered once every 2 days for 23 days and measured every 3 days; format: organism-based; details: in vivo, 552 h, time 23 day
[27] = Toxicity in nude mouse xenografted with human A549/Taxol cells assessed as body weight loss at 10 mg/kg, ip administered once every 2 days for 23 days and measured every 3 days; format: organism-based, A549/TR; details: in vivo, 552 h, time 23 day
A549/TR [28] = test: Induction of cell cycle arrest in human A549/Taxol cells assessed as accumulation of cells at S phase at 1 uM incubated for 24 hrs by PI staining based flow cytometry analysis (reference value: 2.85%); format: functional
A549/TR [29] = test: Induction of apoptosis in human A549/Taxol cells at 1 uM incubated for 48 hrs by Annexin V-FITC/PI staining based flow cytometry analysis; format: functional
A549/TR [30] = test: Induction of cell cycle arrest in human A549/Taxol cells assessed as accumulation of cells at S phase at 0.1 uM incubated for 24 hrs by PI staining based flow cytometry analysis (reference value: 2.85%); format: functional
A549/TR [31] = test: Induction of apoptosis in human A549/Taxol cells at 0.1 uM incubated for 48 hrs by Annexin V-FITC/PI staining based flow cytometry analysis; format: functional
A549/TR [32] = test: Induction of cell cycle arrest in human A549/Taxol cells assessed as accumulation of cells at G2/M phase at 0.1 uM incubated for 24 hrs by PI staining based flow cytometry analysis (reference value: 17.02%); format: functional
A549/TR [33] = test: Induction of cell cycle arrest in human A549/Taxol cells assessed as accumulation of cells at G0/G1 phase at 0.1 uM incubated for 24 hrs by PI staining based flow cytometry analysis (reference value: 77.86%); format: functional

Activity [2]	Activity [3]	Activity [4]	IC50 (A549 [5])	IC50 (HeLa)	IC50 (U-937)	DC50 [6]	Activity [7]	Activity [8]	DC50 [9]	IC50 (MGC-803)	IC50 (HepG2)	Activity [11]	IC50 (MCF7)	Activity [12]	Activity [13]	DC50 [14]	Activity [15]	SMILES	also measured
–	–	–	–	–	–	–	–	–	–	–	–	–	–	–	–	–	–	O=C1CC[C@H](N2Cc3cc(N4CCN(CC5CCN(c6ccc([C@@H]7c8ccc(O)cc8CC[C@@H]7c7ccccc7)cc6)CC5)CC4)ccc3C2=O)C(=O)N1	Activity [1]: < 89%
Active	Dose-Dependent Effect	Active	12 nM	23 nM	22 nM	105 nM	Dose-Dependent Effect	Dose-Dependent Effect	9 nM	8 nM	6 nM	Dose-Dependent Effect	17 nM	Active	Dose-Dependent Effect	35 nM	Dose-Dependent Effect	COc1ccc(/C=C\c2cc(OC)c(OC)c(OC)c2)cc1OC(=O)CCCCNc1cccc2c1C(=O)N(C1CCC(=O)NC1=O)C2=O (centres undefined)	DC50 [3]: 18 nM; DC50 [10]: 883 nM
–	–	–	–	–	–	–	–	–	–	–	–	–	–	–	–	–	–	CC(=O)O[C@H]1C(=O)[C@@]2(C)[C@H]([C@H](OC(=O)c3ccccc3)[C@]3(O)C[C@H](OC(=O)[C@H](O)[C@@H](NC(=O)c4ccccc4)c4ccccc4)C(C)=C1C3(C)C)[C@]1(OC(C)=O)CO[C@@H]1C[C@@H]2O [PACLITAXEL]	inhibition in vivo at 10 mg/kg (A549/TR [16]): 52%; Activity (A549 [17]): 6.1%; Activity (A549/TR [18]): 20.43%; Activity (A549/TR [19]): 74.23%; Activity (A549 [20]): 83.1%; Activity (A549 [21]): Active; IC50 (A549/TR [22]): 1030 nM; Activity (A549 [23]): 10.8%; Activity (A549 [24]): Active; inhibition in vivo at 10 mg/kg (A549 [25]): 28.5%; Activity [26]: Non-Toxic; Activity [27]: Non-Toxic; Activity (A549/TR [28]): 5.77%; Activity (A549/TR [29]): 22.7%
Active	Dose-Dependent Effect	Active	19 nM	23 nM	6 nM	114 nM	Dose-Dependent Effect	Dose-Dependent Effect	52 nM	9 nM	7 nM	Dose-Dependent Effect	17 nM	Active	Dose-Dependent Effect	165 nM	Dose-Dependent Effect	COc1ccc(/C=C\c2cc(OC)c(OC)c(OC)c2)cc1OC(=O)CCCCCNc1cccc2c1C(=O)N(C1CCC(=O)NC1=O)C2=O (centres undefined)	DC50 [15]: 294 nM

SMILES	Activity [2]	Activity [3]	Activity [4]	IC50 (A549 [5])	IC50 (HeLa)	IC50 (U-937)	DC50 [6]	Activity [7]	Activity [8]	DC50 [9]	IC50 (MGC-803)	IC50 (HepG2)	Activity [11]	IC50 (MCF7)	Activity [12]	Activity [13]	DC50 [14]	Activity [15]	also measured
COc1ccc(/C=C\c2cc(OC)c(OC)c(OC)c2)cc1O [COMBRETASTATIN A4]	–	–	–	5 nM	–	–	–	–	–	–	–	–	–	–	–	–	–	–	Activity (A549/TR [30]): 17.89%; Activity (A549/TR [31]): 26.9%; Activity (A549/TR [32]): 64.76%; Activity (A549/TR [33]): 21.17%
